Assay results as given in ChEMBL document CHEMBL1649268, “Comparative in vitro activity profile of oritavancin against recent gram-positive clinical isolates” (2009).

Columns and labels:
[1] = system: Streptococcus pneumoniae; experiment: Antimicrobial activity against Streptococcus pneumoniae clinical isolates by broth microdilution method; format: functional
[2] = system: Streptococcus pneumoniae; experiment: Antimicrobial activity against penicillin-susceptible Streptococcus pneumoniae clinical isolates by broth microdilution method; format: functional
[3] = system: Streptococcus pneumoniae; experiment: Antimicrobial activity against penicillin-intermediate Streptococcus pneumoniae clinical isolates by broth microdilution method; format: functional
[4] = system: Streptococcus pneumoniae; experiment: Antimicrobial activity against penicillin-resistant Streptococcus pneumoniae clinical isolates by broth microdilution method; format: functional
[5] = Antimicrobial activity against erythromycin-susceptible Streptococcus Group G clinical isolates assessed as percent susceptible isolates by broth microdilution method; format: functional, Streptococcus sp. 'group G'
[6] = Antimicrobial activity against erythromycin-susceptible Streptococcus Group C clinical isolates assessed as percent susceptible isolates by broth microdilution method; format: functional, Streptococcus sp. 'group C'
[7] = system: Streptococcus pyogenes; experiment: Antimicrobial activity against erythromycin-nonsusceptible Streptococcus pyogenes clinical isolates assessed as percent susceptible isolates by broth microdilution method; format: functional
[8] = system: Streptococcus pyogenes; experiment: Antimicrobial activity against erythromycin-susceptible Streptococcus pyogenes clinical isolates assessed as percent susceptible isolates by broth microdilution method; format: functional
[9] = system: Streptococcus pyogenes; experiment: Antimicrobial activity against Streptococcus pyogenes clinical isolates assessed as percent susceptible isolates by broth microdilution method; format: functional
[10] = system: Streptococcus agalactiae; experiment: Antimicrobial activity against erythromycin-nonsusceptible Streptococcus agalactiae clinical isolates assessed as percent susceptible isolates by broth microdilution method; format: functional
[11] = system: Streptococcus agalactiae; experiment: Antimicrobial activity against erythromycin-susceptible Streptococcus agalactiae clinical isolates assessed as percent susceptible isolates by broth microdilution method; format: functional
[12] = system: Streptococcus agalactiae; experiment: Antimicrobial activity against Streptococcus agalactiae clinical isolates assessed as percent susceptible isolates by broth microdilution method; format: functional
[13] = system: Enterococcus faecium; experiment: Antimicrobial activity against Enterococcus faecium expressing VanA gene clinical isolates assessed as percent susceptible isolates by broth microdilution method; format: functional
[14] = system: Enterococcus faecalis; experiment: Antimicrobial activity against Enterococcus faecalis expressing VanB gene clinical isolates assessed as percent susceptible isolates by broth microdilution method; format: functional
[15] = system: Enterococcus faecalis; experiment: Antimicrobial activity against Enterococcus faecalis expressing VanA gene clinical isolates assessed as percent susceptible isolates by broth microdilution method; format: functional
[16] = system: Enterococcus faecalis; experiment: Antimicrobial activity against vancomycin-susceptible Enterococcus faecalis clinical isolates assessed as percent susceptible isolates by broth microdilution method; format: functional
[17] = system: Streptococcus pneumoniae; experiment: Antimicrobial activity against Streptococcus pneumoniae clinical isolates assessed as percent susceptible isolates by broth microdilution method; format: functional
[18] = system: Streptococcus pneumoniae; experiment: Antimicrobial activity against penicillin-susceptible Streptococcus pneumoniae clinical isolates assessed as percent susceptible isolates by broth microdilution method; format: functional
[19] = system: Streptococcus pneumoniae; experiment: Antimicrobial activity against penicillin-intermediate Streptococcus pneumoniae clinical isolates assessed as percent susceptible isolates by broth microdilution method; format: functional
[20] = system: Streptococcus pneumoniae; experiment: Antimicrobial activity against penicillin-resistant Streptococcus pneumoniae clinical isolates assessed as percent susceptible isolates by broth microdilution method; format: functional
[21] = Antimicrobial activity against erythromycin-nonsusceptible Streptococcus Group G clinical isolates assessed as resistant isolates by broth microdilution method; format: functional, Streptococcus sp. 'group G'
[22] = Antimicrobial activity against erythromycin-nonsusceptible Streptococcus Group C clinical isolates assessed as resistant isolates by broth microdilution method; format: functional, Streptococcus sp. 'group C'
[23] = system: Streptococcus agalactiae; experiment: Antimicrobial activity against erythromycin-nonsusceptible Streptococcus agalactiae clinical isolates assessed as resistant isolates by broth microdilution method; format: functional
[24] = system: Streptococcus agalactiae; experiment: Antimicrobial activity against erythromycin-susceptible Streptococcus agalactiae clinical isolates assessed as resistant isolates by broth microdilution method; format: functional
[25] = system: Streptococcus agalactiae; experiment: Antimicrobial activity against Streptococcus agalactiae clinical isolates assessed as resistant isolates by broth microdilution method; format: functional
[26] = system: Enterococcus faecium; experiment: Antimicrobial activity against vancomycin-susceptible Enterococcus faecium clinical isolates assessed as resistant isolates by broth microdilution method; format: functional
[27] = system: Enterococcus faecium; experiment: Antimicrobial activity against Enterococcus faecium clinical isolates assessed as resistant isolates by broth microdilution method; format: functional
[28] = system: Enterococcus faecalis; experiment: Antimicrobial activity against Enterococcus faecalis expressing VanB gene clinical isolates assessed as resistant isolates by broth microdilution method; format: functional
[29] = system: Streptococcus pneumoniae; experiment: Antimicrobial activity against penicillin-intermediate Streptococcus pneumoniae clinical isolates assessed as resistant isolates by broth microdilution method; format: functional
[30] = system: Streptococcus; experiment: Antimicrobial activity against erythromycin-nonsusceptible Streptococcus Group F clinical isolates by broth microdilution method; format: functional
[31] = system: Streptococcus; experiment: Antimicrobial activity against erythromycin-susceptible Streptococcus Group F clinical isolates by broth microdilution method; format: functional
[32] = system: Streptococcus; experiment: Antimicrobial activity against Streptococcus Group F clinical isolates by broth microdilution method; format: functional
[33] = Antimicrobial activity against erythromycin-nonsusceptible Streptococcus Group G clinical isolates by broth microdilution method; format: functional; settings: Streptococcus sp. 'group G'
[34] = Antimicrobial activity against erythromycin-susceptible Streptococcus Group G clinical isolates by broth microdilution method; format: functional; settings: Streptococcus sp. 'group G'
[35] = Antimicrobial activity against Streptococcus Group G clinical isolates by broth microdilution method; format: functional; settings: Streptococcus sp. 'group G'
[36] = Antimicrobial activity against erythromycin-nonsusceptible Streptococcus Group C clinical isolates by broth microdilution method; format: functional; settings: Streptococcus sp. 'group C'
[37] = Antimicrobial activity against erythromycin-susceptible Streptococcus Group C clinical isolates by broth microdilution method; format: functional; settings: Streptococcus sp. 'group C'
[38] = Antimicrobial activity against Streptococcus Group C clinical isolates by broth microdilution method; format: functional; settings: Streptococcus sp. 'group C'
[39] = system: Streptococcus pyogenes; experiment: Antimicrobial activity against erythromycin-nonsusceptible Streptococcus pyogenes clinical isolates by broth microdilution method; format: functional
[40] = system: Streptococcus pyogenes; experiment: Antimicrobial activity against erythromycin-susceptible Streptococcus pyogenes clinical isolates by broth microdilution method; format: functional
[41] = system: Streptococcus pyogenes; experiment: Antimicrobial activity against Streptococcus pyogenes clinical isolates by broth microdilution method; format: functional
[42] = system: Streptococcus agalactiae; experiment: Antimicrobial activity against erythromycin-nonsusceptible Streptococcus agalactiae clinical isolates by broth microdilution method; format: functional
[43] = system: Streptococcus agalactiae; experiment: Antimicrobial activity against erythromycin-susceptible Streptococcus agalactiae clinical isolates by broth microdilution method; format: functional
[44] = system: Streptococcus agalactiae; experiment: Antimicrobial activity against Streptococcus agalactiae clinical isolates by broth microdilution method; format: functional
[45] = system: Enterococcus faecalis; experiment: Antimicrobial activity against vancomycin-nonsusceptible Enterococcus faecalis clinical isolates by broth microdilution method; format: functional
[46] = system: Enterococcus faecalis; experiment: Antimicrobial activity against Enterococcus faecalis clinical isolates by broth microdilution method; format: functional

## C[C@H]1COc2c(N3CCN(C)CC3)c(F)cc3c(=O)c(C(=O)O)cn1c23.C[C@H]1COc2c(N3CCN(C)CC3)c(F)cc3c(=O)c(C(=O)O)cn1c23.O [LEVOFLOXACIN]
[1]
  MIC90: 1 µg/mL
[2]
  MIC90: 1 µg/mL
[3]
  MIC90: 1 µg/mL
[4]
  MIC90: 1 µg/mL
[5]
  Activity: 100%
[6]
  Activity: 100%
[7]
  Activity: 99.2%
[8]
  Activity: 100%
[9]
  Activity: 99.9%
[10]
  Activity: 95.9%
[11]
  Activity: 98.6%
[12]
  Activity: 97.8%
[13]
  Activity: 0.2%
[14]
  Activity: 0%
[15]
  Activity: 0%
[16]
  Activity: 64.4%
[17]
  Activity: 99.1%
[18]
  Activity: 99.5%
[19]
  Activity: 97.7%
[20]
  Activity: 99.3%
[21]
  Activity: 0%
[22]
  Activity: 0%
[23]
  Activity: 4.1%
[24]
  Activity: 1.4%
[25]
  Activity: 2.2%
[26]
  Activity: 66%
[27]
  Activity: 85.3%
[28]
  Activity: 100%
[29]
  Percent of isolates resistant: 2.3%
[30]
  MIC90: 0.5 µg/mL
[31]
  MIC90: 0.5 µg/mL
[32]
  MIC90: 0.5 µg/mL
[33]
  MIC90: 0.5 µg/mL
[34]
  MIC90: 0.5 µg/mL
[35]
  MIC90: 0.5 µg/mL
[36]
  MIC90: 0.5 µg/mL
[37]
  MIC90: 0.5 µg/mL
[38]
  MIC90: 0.5 µg/mL
[39]
  MIC90: 1 µg/mL
[40]
  MIC90: 0.5 µg/mL
[41]
  MIC90: 0.5 µg/mL
[42]
  MIC90: 1 µg/mL
[43]
  MIC90: 1 µg/mL
[44]
  MIC90: 1 µg/mL
[45]
  MIC90: > 16 µg/mL
[46]
  MIC90: > 16 µg/mL
